From patent publication US20090239839A1, “RECEPTOR ANTAGONIST” (TAKEDA PHARMACEUTICAL COMPANY LIMITED, priority 2003, published 2009) come the findings set out here.

Common to all, as to type: in vivo
Assay [1] relates to Wistar male rat. As to the kind of experiment: Blood glucose concentration increasing activity of RFRP (intravenous administration to rat). To be noted: RFRP-1 10 nmol/kg intravenous, 5 minutes and 15 minutes after administration, vs physiological saline group. The text has this: In the figure, (-∘-) represents a blood glucose concentration of a physiological saline administration group, (-▴-) represents a blood glucose concentration of an RFRP-1 1 nmol/kg administration group, and (-▪-) represents a blood concentration of an RFRP-1 10 nmol/kg administration group.
As RFRP, human RFRP-1 (37 amino acids) consisting of an amino acid sequence of 56th (Ser) to 92nd (Phe) of an amino acid sequence represented by SEQ ID No.: 4. Hereinafter, this peptide is abbreviated as RFRP-1.
In order to study influence of peripheral administration of RFRP-1 on a blood glucose concentration, operation for collecting blood under free moving was performed. A mature Wistar male rat (weight 310 to 350 g at operation) was anesthetized with 50 mg/kg of pentobarbital by intraperitoneal administration. The rat was fixed on an anatomic pad in a supine position, and a left jugular vein was exposed. […]
Overnight after operation, 300 μl of blood was collected using a tuberculin injection syringe having a dose of 1 ml and a 25 gauge injection needle (both Telmo) before administration of RFRP-1. […] A blood glucose concentration was measured using Fuji Drichem 3500 (FUJIFILM).

The subject of assay [2] is Wistar male rat. As to the kind of experiment: Pancreatic glucagon secretion promoting activity of RFRP (blood glucagon and insulin in rat). To be noted: RFRP-1 intravenous; for blood glucagon concentration: vs physiological saline group. The text has this:
In the figure, (-∘-) represents a blood glucagon concentration of a physiological saline administration group, (-▴-) represents a blood glucagon concentration of an RFRP-1 1 nmol/kg administration group, and (-▪-) represents a blood glucagon concentration of an RFRP-1 10 nmol/kg administration group.
In the figure, (-∘-) represents a blood insulin concentration of a physiological saline administration group, (-▴-) represents a blood insulin concentration of an RFRP-1 1 nmol/kg administration group, and (-▪-) represents a blood insulin concentration of an RFRP-1 10 nmol/kg administration group. A value indicates mean±standard deviation (mean±SE) (n=4).
In order to study mechanism of blood glucose concentration increasing activity of RFRP-1, influence of RFRP-1 on a blood concentration of glucagon and insulin which are known as a hormone imparting a variation to a blood glucose concentration was studied. A mature Wistar male rat (weight 310 to 350 g at operation) was operated for collecting blood under free moving. Overnight after operation, 300 μl of a blood was collected using a tuberculin injection syringe having a dose of 1 ml and a 25 gauge injection needle (both Telmo) before administration of RFRP-1. In order to prevent blood coagulation, 3 μl of a 300 KIU/ml aprotinin solution containing 3 mg/ml EDTA had been placed into an injection syringe in advance. An Otsuka physiological saline or RFRP-1 dissolved in a physiological saline (80 nmol/mL) was intravenously administered through a tube at 1 mL/Kg. After 1, 3, 5 and 15 minutes from initiation of intravenous administration, each 300 μl of blood was collected from a jugular vein. The collected blood was centrifuged (13,000 rpm, 5 minutes) using a minor amount high speed cooling centrifuge (MR-150, Tommy Seiko), and the supernatant (plasma) was recovered.

The subject of assay [3] is Wistar male rat. As to the kind of experiment: Amnesia promoting activity of RFRP (cued fear conditioning, ventricle administration). To be noted: RFRP-1 3 nmol into a ventricle, on 2 day (48 hours after training), sound stimulation. The protocol:
FIG. 4 indicates a ratio of freezing in a sound clue when RFRP-1 (-□-) and a physiological saline (-∘-) are administered in a ventricle. An ordinate axis indicates freezing (%) of one day and two day after administration, respectively, expressed by mean±standard error.
Since an RFRP nerve is projected on amygdaloid complex, in order to study involvement of RFRP in amygdaloid complex-dependent memory•learning ability, influence under cued fear conditioning due to ventricle administration of RFRP-1 was studied. A mature Wistar male rat (weight 280 to 320 g at operation) was anesthetized with 50 mg/kg of pentobarbital by intraperitoneal administration, and a rat was fixed in a brain localization apparatus. A tooth cutting bar was set lower by 3.3 mm from an interoralline. A cranial bone was exposed, and a hole was opened in a bone using a dental drill in order to embed a guide cannulae AG-12 (internal diameter 0.4 mm, external diameter 0.5 mm, Eicom) in a ventricle. In addition, an anchor screw was embedded in four places at a periphery thereof. A stainless guide cannulae AG-12 was inserted so that its tip was positioned at an upper part of a side ventricle. A localization coordinate was set to be AP: −0.8 mm, L: 1.5 mm, H, 4.5 mm from a Blegma according to Atlas of Paxinos and Watson (1986). […]

As for “RFRP-1: human RFRP-1 (37 amino acids) consisting of an amino acid sequence of 56th (Ser) to 92nd (Phe) of SEQ ID No.: 4 (SLNFEELKDWGPKNVIKMSTPAVNKMPHSFANLPLRF; Human)”, the blood glucose concentration result in assay [1] is recorded as “significant (p<0.05, n=4) activity of increasing a blood glucose concentration”. In assay [2], the blood insulin concentration entry is “a variation due to administration of RFRP-1 was not recognized”. Moreover, the blood glucagon concentration result is listed as “significant (p<0.01) increase was continued” in assay [2] (5 minutes after administration) and “significant (p<0.01) increase in a blood glucagon concentration was recognized” in assay [2] (two minutes after administration). The substance further registered a rate of freezing in assay [3] of 35.5%.
